# Active and inactive are the calls of the source. The calls are words filed in the database; no cut-off is given here.
# Columns and labels:
# [1] = Hepatotoxicity in DIO C57BL/6 mouse assessed as aspartate aminotransferase level in serum at 25 nmol/kg, sc administered every 2 days for 3 weeks; assay type: toxicity, organism-based; conditions: in vivo, 504 h, time 21 day
# [2] = Pancreatic insult activity in db/db mouse assessed as increase in lipase level in serum at 25 nmol/kg, sc administered every 2 days for 12 weeks; assay type: toxicity, organism-based; conditions: in vivo, 2016 h
# [3] = AUC (0 to infinity) in Sprague-Dawley rat at 25 nmol/kg, iv by LC-MS/MS analysis; assay type: ADME, organism-based; design: time infinity, dose 25 nmol/kg, route iv; conditions: in vivo
# [4] = tested on: Mus musculus; test: Anti-diabesity activity against db/db mouse assessed as enhanced islets insulin content at 25 nmol/kg, sc administered every 2 days for 3 weeks by immunohistochemistry staining; assay type: functional, organism-based; conditions: time 21.0 day
# [5] = tested on: Mus musculus; test: Anti-diabesity activity against db/db mouse assessed as reduction in HbA1c level at 25 nmol/kg, sc administered every 2 days for 12 weeks; assay type: functional, organism-based
# [6] = tested on: Mus musculus; test: Anti-diabesity activity in DIO C57BL/6 mouse assessed as reduction in body weight at 100 nmol/kg, sc administered once daily for 7 days; assay type: functional; conditions: C57BL/6, 168 h, time 7 day
# [7] = tested on: Mus musculus; test: Anorectic activity in ICR mouse assessed as decrease in food intake at 25 nmol/kg, ip and measured after 24 hrs; assay type: functional, organism-based
# [8] = tested on: Mus musculus; test: Anti-diabesity activity in DIO C57BL/6 mouse assessed as improvement in insulin sensitivity at 25 nmol/kg, sc administered every 2 days for 10 days by insulin tolerance test; assay type: functional, organism-based; conditions: time 10.0 day
# [9] = tested on: Mus musculus; test: Anti-diabesity activity against db/db mouse assessed as reduction in fasted blood glucose level at 25 nmol/kg, sc administered every 2 days for 3 weeks; assay type: functional, organism-based; conditions: time 21.0 day
# [10] = Renal toxicity in DIO C57BL/6 mouse assessed as creatinine level in serum at 25 nmol/kg, sc administered every 2 days for 3 weeks; assay type: organism-based; conditions: in vivo, 504 h, time 21 day
# [11] = Renal toxicity in DIO C57BL/6 mouse assessed as blood urea nitrogen level at 25 nmol/kg, sc administered every 2 days for 3 weeks; assay type: organism-based; conditions: in vivo, 504 h, time 21 day
# [12] = Pancreatic insult activity in DIO C57BL/6 mouse assessed as lipase level in serum at 25 nmol/kg, sc administered every 2 days for 3 weeks; assay type: toxicity, organism-based; conditions: in vivo, 504 h, time 21 day
# [13] = tested on: Mus musculus; test: Anti-diabesity activity against DIO C57BL/6 mouse assessed as reduction in cholesterol level in serum at 25 nmol/kg, sc administered every 2 days for 3 weeks; assay type: functional, organism-based; conditions: time 21.0 day
# [14] = Hepatotoxicity in DIO C57BL/6 mouse assessed as aspartate aminotransferase level in plasma at 100 nmol/kg, sc administered once daily for 7 days; assay type: toxicity, organism-based; conditions: in vivo, 168 h, time 7 day
# [15] = tested on: Mus musculus; test: Hypoglycemic activity in db/db mouse assessed as reduction in glucose excursion at 25 nmol/kg, ip administered 30 min before oral glucose administration and measured upto 120 mins by OGTT; assay type: functional, organism-based
# [16] = Renal toxicity in db/db mouse assessed as blood urea nitrogen level in serum at 25 nmol/kg, sc administered every 2 days for 12 weeks; assay type: organism-based; conditions: in vivo, 2016 h
# [17] = Renal toxicity in db/db mouse assessed as creatinine level in serum at 100 nmol/kg, sc administered once daily for 7 days; assay type: organism-based; conditions: in vivo, 168 h, time 7 day
# [18] = Renal toxicity in db/db mouse assessed as blood urea nitrogen level at 100 nmol/kg, sc administered once daily for 7 days; assay type: organism-based; conditions: in vivo, 168 h, time 7 day
# [19] = tested on: Mus musculus; test: Anti-diabesity activity against db/db mouse assessed as increase in pancreas mass at 25 nmol/kg, sc administered every 2 days for 12 weeks; assay type: functional, organism-based
# [20] = tested on: Mus musculus; test: Anti-diabesity activity in DIO C57BL/6 mouse assessed as reduction in body weight at 10 nmol/kg, sc administered every 2 days for 10 days; assay type: functional; conditions: C57BL/6, 240 h, time 10 day
# [21] = Renal toxicity in DIO C57BL/6 mouse assessed as creatinine level in serum at 100 nmol/kg, sc administered once daily for 7 days; assay type: organism-based; conditions: in vivo, 168 h, time 7 day
# [22] = Renal toxicity in db/db mouse assessed as creatinine level in serum at 25 nmol/kg, sc administered every 2 days for 12 weeks; assay type: organism-based; conditions: in vivo, 2016 h
# [23] = Pancreatic insult activity in db/db mouse assessed as increase in amylase level in plasma at 100 nmol/kg, sc administered once daily for 7 days; assay type: toxicity, organism-based; conditions: in vivo, 168 h, time 7 day
# [24] = tested on: Mus musculus; test: Anti-diabesity activity in DIO C57BL/6 mouse assessed as reduction in body weight at 100 nmol/kg, sc administered every 2 days for 10 days; assay type: functional; conditions: C57BL/6, 240 h, time 10 day
# [25] = Cmax in Sprague-Dawley rat at 25 nmol/kg, iv by LC-MS/MS analysis; assay type: ADME, organism-based; design: dose 25 nmol/kg, route iv; conditions: in vivo
# [26] = tested on: Mus musculus; test: Anti-diabesity activity against db/db mouse assessed as improvement in glucose tolerance at 25 nmol/kg, sc administered every 2 days for 12 weeks by OGTT; assay type: functional, organism-based
# [27] = tested on: Mus musculus; test: Anti-diabesity activity against db/db mouse assessed as reduction in body weight at 25 nmol/kg, sc administered every 2 days for 3 weeks; assay type: functional, organism-based; conditions: time 21.0 day
# [28] = tested on: Mus musculus; test: Anti-diabesity activity against db/db mouse assessed as improvement in glucose tolerance level at 25 nmol/kg, sc administered every 2 days for 6 weeks followed by saline treatment for 6 weeks and measured during first 6 weeks by OGTT; assay type: functional, organism-based
# [29] = tested on: Mus musculus; test: Anti-diabesity activity against db/db mouse assessed as improvement in glucose tolerance level at 25 nmol/kg, sc administered every 2 days for 6 weeks followed by saline treatment for 6 weeks and measured during second 6 weeks by OGTT; assay type: functional, organism-based
# [30] = Hepatotoxicity in db/db mouse assessed as alanine aminotransferase level in plasma at 25 nmol/kg, sc administered every 2 days for 12 weeks; assay type: toxicity, organism-based; conditions: in vivo, 2016 h
# [31] = tested on: Mus musculus; test: Anti-diabesity activity against db/db mouse assessed as reduction in fasting blood glucose level at 25 nmol/kg, sc administered every 2 days for 12 weeks; assay type: functional, organism-based
# [32] = tested on: Mus musculus; test: Anti-diabesity activity against DIO C57BL/6 mouse assessed as reduction in leptin level in plasma at 25 nmol/kg, sc administered every 2 days for 3 weeks by ELISA; assay type: functional, organism-based; conditions: time 21.0 day
# [33] = tested on: Mus musculus; test: Anti-diabesity activity in DIO C57BL/6 mouse assessed as reduction in body weight at 25 nmol/kg, sc administered every 2 days for 10 days; assay type: functional; conditions: C57BL/6, 240 h, time 10 day
# [34] = MRT in Sprague-Dawley rat at 25 nmol/kg, sc by LC-MS/MS analysis; assay type: ADME, organism-based; conditions: in vivo
# [35] = Pancreatic insult activity in db/db mouse assessed as increase in amylase level in serum at 25 nmol/kg, sc administered every 2 days for 12 weeks; assay type: toxicity, organism-based; conditions: in vivo, 2016 h
# [36] = tested on: Mus musculus; test: Anti-diabesity activity against DIO C57BL/6 mouse assessed as decrease in fat mass at 25 nmol/kg, sc administered every 2 days for 3 weeks; assay type: functional, organism-based; conditions: time 21.0 day
# [37] = tested on: Mus musculus; test: Anti-diabesity activity in DIO C57BL/6 mouse assessed as decrease in fasted blood glucose level at 100 nmol/kg, sc administered once daily for 7 days; assay type: functional, organism-based; conditions: time 7.0 day
# [38] = tested on: Mus musculus; test: Anti-diabesity activity against DIO C57BL/6 mouse assessed as reduction in triglycerides level in serum at 25 nmol/kg, sc administered every 2 days for 3 weeks; assay type: functional, organism-based; conditions: time 21.0 day
# [39] = Pancreatic insult activity in DIO C57BL/6 mouse assessed as increase in lipase level in plasma at 100 nmol/kg, sc administered once daily for 7 days; assay type: toxicity, organism-based; conditions: in vivo, 168 h, time 7 day
# [40] = tested on: Mus musculus; test: Anti-diabesity activity against db/db mouse assessed as reduction in HbA1c level at 25 nmol/kg, sc administered every 2 days for 6 weeks followed by saline treatment for 6 weeks and measured during first 6 weeks; assay type: functional, organism-based
smiles,measurement,setting,value
CCCC[C@H](NC(=O)[C@H](Cc1ccc(CS(=O)(=O)O)cc1)NC(=O)[C@H](CC(=O)O)NC(=O)COCCOCCNC(=O)COCCOCCNC(=O)[C@H](CCCCN)NC(=O)CNC(=O)[C@H](CCCCN)NC(=O)[C@@H](NC(=O)[C@H](CC(C)C)NC(=O)[C@H](Cc1c[nH]c2ccccc12)NC(=O)[C@H](CCC(=O)O)NC(=O)[C@@H](NC(=O)[C@H](Cc1ccccc1)NC(=O)[C@H](CCC(=O)O)NC(=O)[C@H](CCCCNC(=O)COCCOCCNC(=O)COCCOCCNC(=O)CC[C@H](NC(=O)CCCCCCCCCCCCCCCCC(=O)O)C(=O)O)NC(=O)[C@H](C)NC(=O)[C@H](C)NC(=O)[C@H](CCC(=O)O)NC(=O)[C@H](CCC(=O)O)NC(=O)[C@H](CCC(=O)O)NC(=O)[C@H](CC(C)C)NC(=O)[C@@H](NC(=O)[C@H](CCC(=O)O)NC(=O)[C@@H](NC(=O)[C@@H](NC(=O)[C@H](CC(=O)O)NC(=O)[C@H](CC(N)=O)NC(=O)[C@@H](NC(=O)[C@H](Cc1ccc(O)cc1)NC(=O)[C@@H](NC(=O)CNC(=O)[C@H](CCC(=O)O)NC(=O)C(C)(C)NC(=O)[C@@H](N)Cc1cnc[nH]1)[C@@H](C)O)[C@@H](C)O)C(C)C)[C@@H](C)O)[C@@H](C)O)[C@@H](C)CC)[C@@H](C)CC)C(=O)NCC(=O)N[C@@H](Cc1c[nH]c2ccccc12)C(=O)N[C@@H](CCCC)C(=O)N(C)[C@H](CC(=O)O)C(=O)N(C)[C@@H](Cc1ccccc1)C(N)=O,Activity,[1],Non-Toxic
same,Activity,[2],Toxic
same,AUC(0-inf),[3],17600 ng·h/mL
same,Activity,[4],Active
same,Activity,[5],Active
same,inhibition in vivo at 0.1 µmol/kg,[6],21.4%
same,Activity,[7],Active
same,Activity,[8],Active
same,Activity,[9],Active
same,Activity,[10],Non-Toxic
same,Activity,[11],Non-Toxic
same,Activity,[12],Non-Toxic
same,Activity,[13],Active
same,Activity,[14],Non-Toxic
same,Activity,[15],Active
same,Activity,[16],Non-Toxic
same,Activity,[17],Non-Toxic
same,Activity,[18],Non-Toxic
same,Activity,[19],Active
same,inhibition in vivo at 0.01 µmol/kg,[20],16.2%
same,Activity,[21],Non-Toxic
same,Activity,[22],Non-Toxic
same,Activity,[23],Non-Toxic
same,inhibition in vivo at 0.1 µmol/kg,[24],30.6%
same,Cmax,[25],1660 ng/mL
same,Activity,[26],Active
same,Activity,[27],Active
same,Activity,[28],Active
same,Activity,[29],Active
same,Activity,[30],Non-Toxic
same,Activity,[31],Active
same,Activity,[32],Active
same,inhibition in vivo at 0.025 µmol/kg,[33],21.2%
same,MRT,[34],25.9 h
same,Activity,[35],Toxic
same,Activity,[36],Active
same,Activity,[37],Active
same,Activity,[38],Active
same,Activity,[39],Non-Toxic
same,Activity,[40],Active
